Reference: ChEMBL document CHEMBL2417533, “Apratoxin H and apratoxin A sulfoxide from the Red Sea cyanobacterium Moorea producens” (J Nat Prod, 2013)

Tested on: NCI-H460
Assay: Cytotoxicity against human NCI-H460 cells after 48 hrs by MTT assay
Type: functional, cell-based
Settings: NCI-H460, 48 h

Compound | IC50
CC[C@H](C)[C@H]1C(=O)N2CCCC[C@H]2C(=O)O[C@H](C(C)(C)C)C[C@@H](C)C[C@H](O)[C@H](C)C2=N[C@@H](/C=C(\C)C(=O)N[C@@H](Cc3ccc(OC)cc3)C(=O)N(C)[C@@H](C)C(=O)N1C)CS2 | 3.4 nM
CC[C@H](C)[C@H]1C(=O)N2CCC[C@H]2C(=O)O[C@H](C(C)(C)C)C[C@@H](C)C[C@H](O)[C@H](C)C2=N[C@@H](/C=C(\C)C(=O)N[C@@H](Cc3ccc(OC)cc3)C(=O)N(C)[C@@H](C)C(=O)N1C)C[S+]2[O-] (stereo partly drawn) | 89.9 nM
CC[C@H](C)[C@H]1C(=O)N2CCC[C@H]2C(=O)O[C@H](C(C)(C)C)C[C@@H](C)C[C@H](O)[C@H](C)C2=N[C@@H](/C=C(\C)C(=O)N[C@@H](Cc3ccc(OC)cc3)C(=O)N(C)[C@@H](C)C(=O)N1C)CS2 [APRATOXIN A] | 2.5 nM
